Here are results for one substance from patent US7550425B2, “Diuretic peptide conjugates” (Zealand Pharma A/S, priority 2000, dated 2009).

Series [1] can be described thus: In vitro stability in heparin stabilised mouse plasma. It is filed as in vitro ADME. The settings on record: heparinised mouse plasma, 37° C., read-out: half-life t½ of degradation. On the procedure: Degradation of peptides is almost exclusively seen in the presence of enzymes, e.g. in the bloodstream. An important feature of a putative drug is whether it is quickly degraded in vivo or whether it is able to conduct its effects over a longer period of time. To be able to examine the stability of the peptide conjugates of the present invention degradation was tested in heparin stabilised mouse plasma (obtained from Harlan Seralab, UK).
The stability studies were run in triplicate. 100 μL of a 1 mg/mL solution of the test compound (peptide conjugate) was added to an Eppendorf tube, containing 900 μL plasma, incubated at 37° C. Immediately after addition, a sample of 100 μL was removed and added to an Eppendorf tube, containing 10 μL of extraction solution (50% TFA (trifluoroacetic acid) in MeCN, v/v). This sample constitutes t=0. […] The samples are centrifuged at 20,000×g, and the supernatant was transferred to vials and analysed by high-performance liquid chromatography (HPLC).
The analysis was performed on a HP1100 HPLC with a quaternary pump. The column used was a Vydac 201SP5215, and the apparatus comprises an autosampler, a column oven, a variable UV detector and a fluorescence detector. […] These values were transferred to Microsoft Excel, where half-lives (t½) and rate constant (kobs) for Ac-RYYRWK-NH2 (SEQ ID NO: 1) and Compound 1 were determined by fitting to the equation.

In the next series the test system is mouse vas deferens. The series can be described thus: Mouse vas deferens assay: inhibition of electrically-induced contraction. The following applies: cumulative addition; data not shown. From the text:
The compounds of the present invention are pharmacologically active, e.g. as nociceptin agonists or partial agonists, and a useful method of showing activity is described by Hughes J., Kosterlitz H. W., Leslie F. M.: Effect of morphine on adrenergic transmission in the mouse vas deferens. Assessment of agonist and antagonist potencies of narcotic analgesics^[4]. The isolated electrically stimulated mouse vas deferens preparation has been widely used to evaluate the functional pharmacological actions of opioid agonists and antagonists in vitro^[5].
The vas deferens from male NMRI albino mice weighing 30-40 g were placed in a SCHULER organ bath Type 809, Hugo Sachs Elektronik, Germany, and perfused with a 37° C., modified Krebs solution (NaCl 6,9 g/L, KCl 0.35 g/L, KH2PO4 0.16 g/L, NaHCO3 2.1 g/L, Glucose H2O 2.0 g/L, CaCl2 2.52 mL/L). The solution was gassed with carbogen (95% O2 and 5% CO2) throughout the experiment. The tissue was electrically stimulated through two silver electrodes directly in the organ bath using a HSE Stimulator I Type 215. Stimulation of the tissue was performed by applying a supramaximal voltage (15 Volts) in trains of 10 square pulses every 60 s, each of 1 ms duration with a frequency of […]. Concentration-response curves were performed by adding test substances that relax mouse vas deferens smooth muscles cumulatively to the organ baths. The test substances used in the assay were nociceptin in an isotonic saline solution, Compound 1 (as the trifluoroacetate in an isotonic saline solution), Compound 2 (as the trifluoroacetate in an isotonic saline solution), and the hexapeptide Ac-RYYRWK-NH2 (SEQ ID NO: 1) (as the trifluoroacetate in an isotonic saline solution).

The term half-life denotes the time needed for the level to fall by half in the phase considered. Regarding “Ac-RYYRWKKKKKKK-NH2 [Compound 1, Ac-RYYRWKKKKKKK-NH2]”, in series [1], the half-life at 0.1 mg/mL turned out to be 5.97 h. In addition, the “potency order for inhibition of electrically-induced contraction of the mouse vas deferens” value with mouse vas deferens is recorded as “nociceptin>Compound 1=Compound 2>>Ac-RYYRWK-NH2”.
